Columns and labels:
Assay type in all cases: biochemical
[1] = biological target: PI3K-alpha (Homo sapiens, UniProt P42336); experiment: PI3K-alpha fluorescence polarization assay; conditions: read-out: PI3Kα Avg. IC50
[2] = biological target: PI3K-gamma (Homo sapiens, UniProt P48736); experiment: PI3K-gamma fluorescence polarization assay; conditions: PI3Kγ Avg. IC50
Procedure, shortened: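 Each isoform (5 ng) phosphorylated 2.5 μM diC8-PI(4,5)P2 at 25 μM ATP for one hour at 25° C in the presence of inhibitor. Reactions were then stopped with EDTA, and product was detected by fluorescence polarization using a GST-GRP1 PH domain and a BODIPY-TMR-labelled IP4 tracer.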

[3] = biological target: T1, human TOR (Homo sapiens, UniProt P42345); experiment: mTOR enzyme assay (DELFIA, His6-S6K substrate); conditions: read-out: mTOR Kinase Avg. IC50
T1 construct: FLAG

Chain of PI3K-gamma (P48736 whole entry, species assumed, the tested form may be a part, canonical isoform): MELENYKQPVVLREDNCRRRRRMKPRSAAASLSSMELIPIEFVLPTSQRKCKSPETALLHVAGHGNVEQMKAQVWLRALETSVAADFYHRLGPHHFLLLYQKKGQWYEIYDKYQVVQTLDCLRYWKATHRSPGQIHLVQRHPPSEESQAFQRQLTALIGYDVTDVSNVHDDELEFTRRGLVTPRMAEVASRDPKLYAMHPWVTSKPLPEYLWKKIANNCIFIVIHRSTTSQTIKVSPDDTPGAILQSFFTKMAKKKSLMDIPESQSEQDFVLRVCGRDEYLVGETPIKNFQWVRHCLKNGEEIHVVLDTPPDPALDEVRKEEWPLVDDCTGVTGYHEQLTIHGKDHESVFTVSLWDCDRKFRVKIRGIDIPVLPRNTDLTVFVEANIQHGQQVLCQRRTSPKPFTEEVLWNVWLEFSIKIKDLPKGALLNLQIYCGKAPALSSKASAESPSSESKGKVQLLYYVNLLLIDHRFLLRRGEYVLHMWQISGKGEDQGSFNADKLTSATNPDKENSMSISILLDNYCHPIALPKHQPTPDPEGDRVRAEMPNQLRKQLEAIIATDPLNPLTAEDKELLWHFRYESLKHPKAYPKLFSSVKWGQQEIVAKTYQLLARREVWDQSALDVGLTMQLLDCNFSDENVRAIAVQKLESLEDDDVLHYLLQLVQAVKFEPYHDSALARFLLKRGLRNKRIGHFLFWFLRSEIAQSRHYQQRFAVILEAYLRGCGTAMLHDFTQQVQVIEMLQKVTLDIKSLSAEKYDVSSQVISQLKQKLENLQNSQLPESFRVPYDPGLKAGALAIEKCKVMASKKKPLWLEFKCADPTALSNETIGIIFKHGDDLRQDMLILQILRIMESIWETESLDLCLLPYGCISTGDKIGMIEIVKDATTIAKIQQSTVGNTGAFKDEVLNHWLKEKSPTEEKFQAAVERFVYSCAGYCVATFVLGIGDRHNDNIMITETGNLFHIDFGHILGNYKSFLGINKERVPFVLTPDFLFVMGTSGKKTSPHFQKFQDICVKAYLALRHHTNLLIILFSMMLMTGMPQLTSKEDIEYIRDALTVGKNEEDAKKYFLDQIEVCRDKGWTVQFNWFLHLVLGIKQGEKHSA
Chain of PI3K-alpha (P42336 whole entry, species assumed): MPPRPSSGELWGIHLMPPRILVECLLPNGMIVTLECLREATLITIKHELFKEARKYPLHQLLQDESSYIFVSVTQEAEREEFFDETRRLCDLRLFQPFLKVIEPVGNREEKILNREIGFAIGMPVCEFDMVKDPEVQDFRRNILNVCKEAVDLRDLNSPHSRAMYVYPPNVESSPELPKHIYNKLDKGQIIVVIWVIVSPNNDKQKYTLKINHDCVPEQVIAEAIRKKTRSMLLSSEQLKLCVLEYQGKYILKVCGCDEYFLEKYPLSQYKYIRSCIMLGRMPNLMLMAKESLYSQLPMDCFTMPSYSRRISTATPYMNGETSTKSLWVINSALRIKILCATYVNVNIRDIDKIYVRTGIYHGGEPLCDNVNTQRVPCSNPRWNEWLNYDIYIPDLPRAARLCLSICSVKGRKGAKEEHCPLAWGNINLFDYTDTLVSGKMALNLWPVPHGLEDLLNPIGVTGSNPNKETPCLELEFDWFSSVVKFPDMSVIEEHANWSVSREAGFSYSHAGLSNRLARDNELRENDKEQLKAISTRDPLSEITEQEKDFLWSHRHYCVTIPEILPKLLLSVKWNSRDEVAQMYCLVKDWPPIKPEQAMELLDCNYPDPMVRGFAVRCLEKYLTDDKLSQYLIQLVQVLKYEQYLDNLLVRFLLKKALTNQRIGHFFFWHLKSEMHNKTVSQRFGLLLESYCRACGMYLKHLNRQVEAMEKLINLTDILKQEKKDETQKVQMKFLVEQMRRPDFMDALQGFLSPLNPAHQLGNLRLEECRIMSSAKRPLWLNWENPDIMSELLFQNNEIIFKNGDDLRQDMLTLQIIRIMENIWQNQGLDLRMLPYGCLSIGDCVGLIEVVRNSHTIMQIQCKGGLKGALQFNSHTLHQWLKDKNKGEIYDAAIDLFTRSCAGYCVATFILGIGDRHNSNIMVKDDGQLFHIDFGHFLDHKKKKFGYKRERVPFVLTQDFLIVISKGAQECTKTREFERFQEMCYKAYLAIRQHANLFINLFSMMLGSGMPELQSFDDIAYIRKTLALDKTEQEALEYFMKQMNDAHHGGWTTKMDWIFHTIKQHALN
Chain of PI3K-alpha (P27986 whole entry partner, species assumed): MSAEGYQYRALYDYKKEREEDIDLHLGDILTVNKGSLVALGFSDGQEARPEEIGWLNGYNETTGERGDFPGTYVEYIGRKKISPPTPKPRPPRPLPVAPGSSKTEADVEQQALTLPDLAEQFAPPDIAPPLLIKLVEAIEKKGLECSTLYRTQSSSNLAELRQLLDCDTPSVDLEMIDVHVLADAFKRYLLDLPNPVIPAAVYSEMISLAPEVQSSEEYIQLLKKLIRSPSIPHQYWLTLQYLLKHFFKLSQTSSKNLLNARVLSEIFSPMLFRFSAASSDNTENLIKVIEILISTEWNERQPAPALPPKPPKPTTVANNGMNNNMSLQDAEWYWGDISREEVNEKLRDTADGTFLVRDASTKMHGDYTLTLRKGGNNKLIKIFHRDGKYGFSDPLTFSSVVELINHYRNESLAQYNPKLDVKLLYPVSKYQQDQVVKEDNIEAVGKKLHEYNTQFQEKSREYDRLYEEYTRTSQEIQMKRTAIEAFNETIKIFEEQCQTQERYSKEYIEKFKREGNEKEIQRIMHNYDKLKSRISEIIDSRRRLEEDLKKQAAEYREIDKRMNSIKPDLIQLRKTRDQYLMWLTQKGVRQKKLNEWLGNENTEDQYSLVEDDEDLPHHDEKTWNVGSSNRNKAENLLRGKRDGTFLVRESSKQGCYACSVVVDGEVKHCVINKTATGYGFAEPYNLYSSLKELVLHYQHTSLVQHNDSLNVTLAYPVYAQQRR

Structure (SMILES) | IC50 [1] | IC50 [2] | IC50 [3]
CCn1c(C)c(/C=C2\Oc3ccc(NC(=O)Nc4ccc(C(=O)NCCCN(C)C)cc4)cc3C2=O)c2cc(OC)ccc21 [Compound 666, N-[3-(dimethylamino)propyl]-4-[({(2Z)-2-[(1-ethyl-5-methoxy-2-methyl-1H-indol-3-yl)methylidene]-3-oxo-2,3-dihydro-1-benzofuran-5-yl}carbamoyl)amino]benzamide] | 0.8 nM | 4.5 nM | 34 nM
CCn1c(C)c(/C=C2\Oc3ccc(NC(=O)Nc4ccc(OCCN(C)C)cc4)cc3C2=O)c2cc(OC)ccc21 [Compound 667, 1-{4-[2-(dimethylamino)ethoxy]phenyl}-3-{(2Z)-2-[(1-ethyl-5-methoxy-2-methyl-1H-indol-3-yl)methylidene]-3-oxo-2,3-dihydro-1-benzofuran-5-yl}urea] | 1.87 nM | 11.3 nM | 153 nM
CCn1c(C)c(/C=C2\Oc3ccc(NC(=O)Nc4ccc(OCCCCN(C)C)cc4)cc3C2=O)c2cc(OC)ccc21 [Compound 668, 1-{4-[4-(dimethylamino)butoxy]phenyl}-3-{(2Z)-2-[(1-ethyl-5-methoxy-2-methyl-1H-indol-3-yl)methylidene]-3-oxo-2,3-dihydro-1-benzofuran-5-yl}urea] | 2.87 nM | 12.3 nM | 295 nM
CNCCNC(=O)c1ccc(NC(=O)Nc2ccc3c(c2)C(=O)/C(=C/c2c(C)n(CCN4CCN(C)CC4)c4ccc(OC)cc24)O3)cc1 [Compound 669, 4-({[(2Z)-2-({5-methoxy-2-methyl-1-[2-(4-methylpiperazin-1-yl)ethyl]-1H-indol-3-yl}methylidene)-3-oxo-2,3-dihydro-1-benzofuran-5-yl]carbamoyl}amino)-N-[2-(methylamino)ethyl]benzamide] | 0.6 nM | 29 nM | 4 nM
CCn1c(C)c(/C=C2\Oc3ccc(NC(=O)Nc4ccc(CCN(C)C)cc4)cc3C2=O)c2cc(OC)ccc21 [Compound 670, 1-{4-[2-(dimethylamino)ethyl]phenyl}-3-{(2Z)-2-[(1-ethyl-5-methoxy-2-methyl-1H-indol-3-yl)methylidene]-3-oxo-2,3-dihydro-1-benzofuran-5-yl}urea] | 3.5 nM | 20.3 nM | 133 nM
CCn1c(C)c(/C=C2\Oc3ccc(NC(=O)Nc4ccc(CCCN(C)C)cc4)cc3C2=O)c2cc(OC)ccc21 [Compound 671, 1-{4-[3-(dimethylamino)propyl]phenyl}-3-{(2Z)-2-[(1-ethyl-5-methoxy-2-methyl-1H-indol-3-yl)methylidene]-3-oxo-2,3-dihydro-1-benzofuran-5-yl}urea] | 4 nM | 25 nM | 220 nM
CNCCn1c(-c2c(C)nn(C)c2C)c(/C=C2\Oc3ccc(NC(=O)NC)cc3C2=O)c2cc(OC)ccc21 [Compound 672, 1-[(2Z)-2-({5-methoxy-1-[2-(methylamino)ethyl]-2-(1,3,5-trimethyl-1H-pyrazol-4-yl)-1H-indol-3-yl}methylidene)-3-oxo-2,3-dihydro-1-benzofuran-5-yl]-3-methylurea] | 10.5 nM | 180 nM | 27 nM
CNC(=O)Nc1ccc2c(c1)C(=O)/C(=C/c1c(-c3c(C)nn(C)c3C)n(CCN(C)C)c3ccc(OC)cc13)O2 [Compound 673, 1-[(2Z)-2-({1-[2-(dimethylamino)ethyl]-5-methoxy-2-(1,3,5-trimethyl-1H-pyrazol-4-yl)-1H-indol-3-yl}methylidene)-3-oxo-2,3-dihydro-1-benzofuran-5-yl]-3-methylurea] | 12.5 nM | 61.5 nM | 60 nM
COc1ccc2c(c1)c(/C=C1\Oc3ccc(NC(=O)Nc4ccc(OCCCCN(C)C)cc4)cc3C1=O)c(C)n2CCN1CCN(C)CC1 [Compound 674, 1-{4-[4-(dimethylamino)butoxy]phenyl}-3-[(2Z)-2-({5-methoxy-2-methyl-1-[2-(4-methylpiperazin-1-yl)ethyl]-1H-indol-3-yl}methylidene)-3-oxo-2,3-dihydro-1-benzofuran-5-yl]urea] | 10 nM | 686 nM | 350 nM
CCn1c(C)c(/C=C2\Oc3ccc(NC(=O)Nc4ccc(N(C)CCCCN(C)C)cc4)cc3C2=O)c2cc(OC)ccc21 [Compound 675, 1-(4-{[4-(dimethylamino)butyl](methyl)amino}phenyl)-3-{(2Z)-2-[(1-ethyl-5-methoxy-2-methyl-1H-indol-3-yl)methylidene]-3-oxo-2,3-dihydro-1-benzofuran-5-yl}urea] | 9 nM | 40 nM | 370 nM
CCn1c(C)c(/C=C2\Oc3ccc(NC(=O)Nc4ccc(NC(=O)CCN(C)C)cc4)cc3C2=O)c2cc(OC)ccc21 [Compound 676, N-{4-[({(2Z)-2-[(1-ethyl-5-methoxy-2-methyl-1H-indol-3-yl)methylidene]-3-oxo-2,3-dihydro-1-benzofuran-5-yl}carbamoyl)amino]phenyl}-N3,N3-dimethyl-b-alaninamide] | 0.3 nM | 3.25 nM | 7 nM
CCn1c(C)c(/C=C2\Oc3ccc(NC(=O)Nc4ccc(S(=O)(=O)N5CCN(C)CC5)cc4)cc3C2=O)c2cc(OC)ccc21 [Compound 677, 1-{(2Z)-2-[(1-ethyl-5-methoxy-2-methyl-1H-indol-3-yl)methylidene]-3-oxo-2,3-dihydro-1-benzofuran-5-yl}-3-{4-[(4-methylpiperazin-1-yl)sulfonyl]phenyl}urea] | 19 nM | 144 nM | 595 nM
CCn1c(C)c(/C=C2\Oc3ccc(NC(=O)Nc4ccc(NCCN(C)C)cc4)cc3C2=O)c2cc(OC)ccc21 [Compound 678, 1-(4-{[2-(dimethylamino)ethyl]amino}phenyl)-3-{(2Z)-2-[(1-ethyl-5-methoxy-2-methyl-1H-indol-3-yl)methylidene]-3-oxo-2,3-dihydro-1-benzofuran-5-yl}urea] | 3 nM | 14.5 nM | 130 nM
CCn1c(C)c(/C=C2\Oc3ccc(NC(=O)Nc4ccc(S(=O)(=O)N(C)CCN(C)C)cc4)cc3C2=O)c2cc(OC)ccc21 [Compound 679, N-[2-(dimethylamino)ethyl]-4-[({(2Z)-2-[(1-ethyl-5-methoxy-2-methyl-1H-indol-3-yl)methylidene]-3-oxo-2,3-dihydro-1-benzofuran-5-yl}carbamoyl)amino]-N-methylbenzenesulfonamide] | 8 nM | 67.5 nM | 370 nM
CNC(=O)Nc1ccc2c(c1)C(=O)/C(=C/c1c(-c3c(C)nn(C)c3C)[nH]c3ccc(OCCOC)cc13)O2 [Compound 680, 1-[(2Z)-2-{[5-(2-methoxyethoxy)-2-(1,3,5-trimethyl-1H-pyrazol-4-yl)-1H-indol-3-yl]methylidene}-3-oxo-2,3-dihydro-1-benzofuran-5-yl]-3-methylurea] | 1920 nM | 6030 nM | 535 nM
COc1ccc2[nH]c(-c3c(C)nn(C)c3C)c(/C=C3\Oc4ccc(NC(=O)Nc5ccc(C(=O)N(C)CCN(C)C)cc5)cc4C3=O)c2c1 [Compound 682, N-[2-(dimethylamino)ethyl]-4-({[(2Z)-2-{[5-methoxy-2-(1,3,5-trimethyl-1H-pyrazol-4-yl)-1H-indol-3-yl]methylidene}-3-oxo-2,3-dihydro-1-benzofuran-5-yl]carbamoyl}amino)-N-methylbenzamide] | 0.3 nM | 1.98 nM | 1 nM

Reference: patent US20090311217A1, “3-SUBSTITUTED-1H-INDOLE COMPOUNDS, THEIR USE AS MTOR KINASE AND PI3 KINASE INHIBITORS, AND THEIR SYNTHESES” (priority 2008, published 2009)
